By IC50 is commonly meant the concentration needed to halve the response being measured.

This is an account of results in US20100286145A1, “ISOPHTHALAMIDE DERIVATIVES INHIBITING BETA-SECRETASE ACTIVITY” (CoMentis, Inc., priority 2007, published 2010).

The target in one test is memapsin 2 (Homo sapiens, UniProt P56817). In words: Inhibition of memapsin 2 beta-secretase activity (fluorogenic substrate FS-2). The format is biochemical. The following applies: memapsin 2, pH 4, 37° C., read-out: M2Ki. The method in brief:
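Memapsin 2 pre-incubated 20 min with compound at pH 4, 37° C, then FS-2 substrate (MCA-SEVNLDAEFK-DNP, APP Swedish cleavage site) added. Rate of fluorescence increase compared with uninhibited controls, fitted to a tight-binding inhibition model.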

Test [1] relates to Aβ production in Chinese hamster ovary cells that over-express human APP695 with the London and Swedish mutations. In words: Cellular Aβ IC50 determination (Aβ40 sandwich ELISA). In kind it is cell-based. The conditions noted are these: Cricetulus griseus. The method in brief:
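CHO cells overexpressing human APP695 with London and Swedish mutations, seeded at 10% confluency, treated with compounds up to about 4 μM final (0.4% DMSO). Secreted Aβ40 measured by sandwich ELISA relative to control and fitted to a 4-parameter IC50 model.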
On the technique in general: In an ELISA, binding on a coated surface is turned into a signal by an enzyme label.

Setting [2] is: cellular Aβ production, read-out: IC50.

Read-outs that look alike come from different tables or passages of the source. A value given as a limit tells only on which side of the number the result lay.

Chain of memapsin 2 (P56817 46-501): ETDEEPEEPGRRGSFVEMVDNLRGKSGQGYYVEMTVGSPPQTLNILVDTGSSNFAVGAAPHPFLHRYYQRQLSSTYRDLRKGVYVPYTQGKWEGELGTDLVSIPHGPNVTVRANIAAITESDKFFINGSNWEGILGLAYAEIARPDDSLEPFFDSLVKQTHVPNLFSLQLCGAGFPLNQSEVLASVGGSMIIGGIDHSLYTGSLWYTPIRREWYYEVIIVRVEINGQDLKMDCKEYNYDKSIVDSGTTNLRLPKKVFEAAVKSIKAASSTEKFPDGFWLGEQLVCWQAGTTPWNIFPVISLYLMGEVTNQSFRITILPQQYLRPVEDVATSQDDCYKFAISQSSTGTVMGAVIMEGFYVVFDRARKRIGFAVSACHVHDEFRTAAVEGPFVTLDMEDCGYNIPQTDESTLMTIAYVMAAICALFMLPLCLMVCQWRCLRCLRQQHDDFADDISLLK

Consider `COC(=O)c1cc(CNC[C@@H](O)[C@H](Cc2ccccc2)NC(=O)c2cc(C(=O)N[C@H](C)c3ccccc3)cc(N(C)S(C)(=O)=O)c2)cc(OC)c1` [Compound 114, methyl 3-(((2R,3S)-2-hydroxy-3-(3-(N-methylmethylsulfonamido)-5-((R)-1-phenylethylcarbamoyl)benzamido)-4-phenylbutylamino)methyl)-5-methoxybenzoate], for which, on memapsin 2 (20 minutes pre-incubation), the Ki is below 300 nM. In addition, the IC50 in test [1] (setting [2]) was below 1000 nM.

For `Cc1csc(CN(C)C(=O)c2cccc(C(=O)N[C@@H](Cc3ccccc3)[C@H](O)CN[C@H](C)c3cncc(C(C)C)c3)c2)n1` [Compound 206, N1-((2S,3R)-3-hydroxy-4-((R)-1-(5-isopropylpyridin-3-yl)ethylamino)-1-phenylbutan-2-yl)-N3-methyl-N3-((4-methylthiazol-2-yl)methyl)isophthalamide], at memapsin 2 (20 minutes pre-incubation), the Ki is below 300 nM. For the same molecule, in test [1] (setting [2]), the IC50 is below 1000 nM.

With `Cc1csc(CN(C)C(=O)c2cc(C(=O)N[C@@H](Cc3ccccc3)[C@H](O)CNCc3cncc(C(C)C)c3)cc(-c3ccncc3)c2)n1` [Compound 205, N1-((2S,3R)-3-hydroxy-4-((5-isopropylpyridin-3-yl)methylamino)-1-phenylbutan-2-yl)-N3-methyl-N3-((4-methylthiazol-2-yl)methyl)-5-(pyridin-4-yl)isophthalamide], the Ki at memapsin 2 (20 minutes pre-incubation) is below 300 nM. Moreover, the IC50 in test [1] (setting [2]) is below 1000 nM.

In the case of `Cc1csc(CN(C)C(=O)c2cccc(C(=O)N[C@@H](Cc3ccccc3)[C@H](O)CN[C@@H](C)c3cncc(C(C)C)c3)c2)n1` [Compound 182, N1-((2S,3R)-3-hydroxy-4-((S)-1-(5-isopropylpyridin-3-yl)ethylamino)-1-phenylbutan-2-yl)-N3-methyl-N3-((4-methylthiazol-2-yl)methyl)isophthalamide], the Ki on memapsin 2 (20 minutes pre-incubation) was below 300 nM. Besides, in test [1] (setting [2]), the IC50 is below 1000 nM.

As to `Cc1csc(CN(C)C(=O)c2cccc(C(=O)N[C@@H](Cc3ccccc3)[C@H](O)CNCc3cncc(N(C)C)c3)c2)n1` [Compound 47, N1-((2S,3R)-4-((5-(dimethylamino)pyridin-3-yl)methylamino)-3-hydroxy-1-phenylbutan-2-yl)-N3-methyl-N3-((4-methylthiazol-2-yl)methyl)isophthalamide], on memapsin 2 (20 minutes pre-incubation), the Ki is below 300 nM. In test [1] (setting [2]), the IC50 is below 1000 nM.

With `COc1cccc(CNC[C@@H](O)[C@H](Cc2ccccc2)NC(=O)c2cc(C(=O)N(C)Cc3nc(C)cs3)cc(N3CCCC3=O)c2)c1` [Compound 194, N1-((2S,3R)-3-hydroxy-4-(3-methoxybenzylamino)-1-phenylbutan-2-yl)-N3-methyl-N3-((4-methylthiazol-2-yl)methyl)-5-(2-oxopyrrolidin-1-yl)isophthalamide], the Ki at memapsin 2 (20 minutes pre-incubation) is below 300 nM. Moreover, the IC50 in test [1] (setting [2]) is below 1000 nM.

With `COc1cccc(CNC[C@@H](O)[C@H](Cc2ccccc2)NC(=O)c2cc(F)cc(C(=O)N(C)Cc3nc(C)cs3)c2)c1` [Compound 4, 5-fluoro-N1-((2S,3R)-3-hydroxy-4-(3-methoxybenzylamino)-1-phenylbutan-2-yl)-N3-methyl-N3-((4-methylthiazol-2-yl)methyl)isophthalamide], the Ki at memapsin 2 (20 minutes pre-incubation) is below 300 nM. In addition, in test [1] (setting [2]), the IC50 is below 1000 nM.

With `COc1cccc(F)c1CNC[C@@H](O)[C@H](Cc1ccccc1)NC(=O)c1cccc(C(=O)N(C)Cc2nc(C)cs2)c1` [Compound 50, N1-((2S,3R)-4-(2-fluoro-6-methoxybenzylamino)-3-hydroxy-1-phenylbutan-2-yl)-N3-methyl-N3-((4-methylthiazol-2-yl)methyl)isophthalamide], the Ki on memapsin 2 (20 minutes pre-incubation) is below 300 nM. Also, the IC50 in test [1] (setting [2]) was below 1000 nM.

As to `CC(=O)Oc1cc(CNC[C@@H](O)[C@H](Cc2ccccc2)NC(=O)c2cccc(C(=O)N(C)Cc3nc(C)cs3)c2)cc(C(C)C)c1` [Compound 243, 3-(((2R,3S)-2-hydroxy-3-(3-(methyl((4-methylthiazol-2-yl)methyl)carbamoyl)benzamido)-4-phenylbutylamino)methyl)-5-isopropylphenyl acetate], at memapsin 2 (fluorogenic substrate FS-2), the Ki is below 300 nM. Further, the IC50 in test [1] (setting [2]) was below 1000 nM.

As for `Cc1csc(CN(C)C(=O)c2cccc(C(=O)N[C@@H](Cc3ccccc3)[C@H](O)CNCc3cc(O)cc(C(C)C)c3)c2)n1` [Compound 125, N1-((2S,3R)-3-hydroxy-4-(3-hydroxy-5-isopropylbenzylamino)-1-phenylbutan-2-yl)-N3-methyl-N3-((4-methylthiazol-2-yl)methyl)isophthalamide], at memapsin 2 (20 minutes pre-incubation), the Ki is below 300 nM. Besides, the IC50 in test [1] (setting [2]) was below 1000 nM.

In the case of `Cc1csc(CN(C)C(=O)c2cc(C(=O)N[C@@H](Cc3ccccc3)[C@H](O)CNCc3cccc(C(C)(C)C)c3)cc(N(C)C)c2)n1` [Compound 268, N1-((2S,3R)-4-(3-tert-butylbenzylamino)-3-hydroxy-1-phenylbutan-2-yl)-5-(dimethylamino)-N3-methyl-N3-((4-methylthiazol-2-yl)methyl)isophthalamide], the Ki at memapsin 2 (fluorogenic substrate FS-2) is below 300 nM. In addition, the IC50 in test [1] (setting [2]) was below 1000 nM.

In the case of `COc1cccc(CNC[C@@H](O)[C@H](Cc2ccccc2)NC(=O)c2cc(C(=O)N(C)Cc3nc(C)cs3)cc(-n3cccc3)c2)c1` [Compound 238, N1-((2S,3R)-3-hydroxy-4-(3-methoxybenzylamino)-1-phenylbutan-2-yl)-N3-methyl-N3-((4-methylthiazol-2-yl)methyl)-5-(1H-pyrrol-1-yl)isophthalamide], the Ki at memapsin 2 (fluorogenic substrate FS-2) was below 300 nM. For the same molecule, in test [1] (setting [2]), the concentration for half-maximal inhibition (IC50) is below 1000 nM.

`COc1cc(C(=O)NCc2nc(C)cs2)cc(C(=O)N[C@@H](Cc2ccccc2)[C@H](O)CNCc2ccnc(C(C)C)c2)c1` [Compound 83, N1-((2S,3R)-3-hydroxy-4-((2-isopropylpyridin-4-yl)methylamino)-1-phenylbutan-2-yl)-5-methoxy-N3-((4-methylthiazol-2-yl)methyl)isophthalamide]: the Ki on memapsin 2 (20 minutes pre-incubation) was below 300 nM. The half-maximal inhibitory concentration (IC50) in test [1] (setting [2]) was below 1000 nM.

For the molecule `Cc1csc(CN(C)C(=O)c2cc(C(=O)N[C@@H](Cc3ccccc3)[C@H](O)CNCc3cncc(C(C)C)c3)cc(-c3ccccc3C#N)c2)n1` [Compound 154, 2′-cyano-N3-((2S,3R)-3-hydroxy-4-((5-isopropylpyridin-3-yl)methylamino)-1-phenylbutan-2-yl)-N5-methyl-N5-((4-methylthiazol-2-yl)methyl)biphenyl-3,5-dicarboxamide], the Ki at memapsin 2 (20 minutes pre-incubation) is below 300 nM. Also, in test [1] (setting [2]), the IC50 was below 1000 nM.

Regarding `Cc1csc(CN(C)C(=O)c2cccc(C(=O)N[C@@H](Cc3ccccc3)[C@H](O)CNCc3cc(C(=O)O)cc(N(C)S(C)(=O)=O)c3)c2)n1` [Compound 139, 3-(((2R,3S)-2-hydroxy-3-(3-(methyl((4-methylthiazol-2-yl)methyl)carbamoyl)benzamido)-4-phenylbutylamino)methyl)-5-(N-methylmethylsulfonamido)benzoic acid], the Ki on memapsin 2 (20 minutes pre-incubation) was below 300 nM. For the same molecule, the IC50 in test [1] (setting [2]) is below 1000 nM.

In the case of `Cc1nnc(CN(C)C(=O)c2cccc(C(=O)N[C@@H](Cc3ccccc3)[C@H](O)CNCc3cncc(C(C)C)c3)c2)o1` [Compound 256, N1-((2S,3R)-3-hydroxy-4-((5-isopropylpyridin-3-yl)methylamino)-1-phenylbutan-2-yl)-N3-methyl-N3-((5-methyl-1,3,4-oxadiazol-2-yl)methyl)isophthalamide], the Ki at memapsin 2 (fluorogenic substrate FS-2) is above 501 nM. For the same molecule, the IC50 in test [1] (setting [2]) is 1000 to 5000 nM.

For the molecule `Cc1csc(CN(C)C(=O)c2cccc(C(=O)N[C@@H](Cc3ccccc3)[C@H](O)CNCc3cc(OC(=O)N4CCOCC4)cc(C(C)C)c3)c2)n1` [Compound 234, 3-(((2R,3S)-2-hydroxy-3-(3-(methyl((4-methylthiazol-2-yl)methyl)carbamoyl)benzamido)-4-phenylbutylamino)methyl)-5-isopropylphenyl morpholine-4-carboxylate], at memapsin 2 (fluorogenic substrate FS-2), the Ki is below 300 nM. This molecule showed an IC50 in test [1] below 1000 nM.

With `Cc1csc(CN(C)C(=O)c2cccc(C(=O)N[C@@H](Cc3ccccc3)[C@H](O)CNCc3cncc(Br)c3)c2)n1` [Compound 158, N1-((2S,3R)-4-((5-bromopyridin-3-yl)methylamino)-3-hydroxy-1-phenylbutan-2-yl)-N3-methyl-N3-((4-methylthiazol-2-yl)methyl)isophthalamide], at memapsin 2 (20 minutes pre-incubation), the Ki is below 300 nM. For the same molecule, in test [1] (setting [2]), the IC50 is below 1000 nM.

With `COc1cccc(CNC[C@@H](O)[C@H](Cc2ccccc2)NC(=O)c2cc(C(=O)N(C)Cc3nc(C)cs3)cc(N3CCCCC3)c2)c1` [Compound 230, N1-((2S,3R)-3-hydroxy-4-(3-methoxybenzylamino)-1-phenylbutan-2-yl)-N3-methyl-N3-((4-methylthiazol-2-yl)methyl)-5-(piperidin-1-yl)isophthalamide], the Ki on memapsin 2 (fluorogenic substrate FS-2) is below 300 nM. The IC50 in test [1] (setting [2]) is below 1000 nM.

As for `Cc1csc(CN(C)C(=O)c2cccc(C(=O)N[C@@H](Cc3ccccc3)[C@H](O)CNCc3cc(C(F)(F)F)cc(C(F)(F)F)c3)c2)n1` [Compound 27, N1-((2S,3R)-4-(3,5-bis(trifluoromethyl)benzylamino)-3-hydroxy-1-phenylbutan-2-yl)-N3-methyl-N3-((4-methylthiazol-2-yl)methyl)isophthalamide], the Ki on memapsin 2 (20 minutes pre-incubation) was below 300 nM. Moreover, in test [1] (setting [2]), the IC50 is below 1000 nM.

For `Cc1csc(CN(C)C(=O)c2cc(C(=O)N[C@@H](Cc3ccccc3)[C@H](O)CNCc3cncc(C(C)C)c3)cc(-c3cnccn3)c2)n1` [Compound 214, N1-((2S,3R)-3-hydroxy-4-((5-isopropylpyridin-3-yl)methylamino)-1-phenylbutan-2-yl)-N3-methyl-N3-((4-methylthiazol-2-yl)methyl)-5-(pyrazin-2-yl)isophthalamide], the Ki on memapsin 2 (fluorogenic substrate FS-2) is below 300 nM. For the same molecule, the IC50 in test [1] (setting [2]) is below 1000 nM.
